The assay concerns primary hepatocytes isolated from rats. The assay can be described thus: Hepatocyte protective effect against doxorubicin treatment (cell viability, WST-1). The format is cell-based. Particulars: primary rat hepatocytes pretreated with compound for 30 min, viability by WST-1 after 24-48 hours. Here is the method:
Various endogenous/exogenous attacks on cells trigger the mechanisms of cell death which is broadly classified into two types—i.e., apoptosis or necrosis. Using these cell death mechanisms, in the present experimental example, primary hepatocytes isolated from rats were treated with drugs which were clinically shown to result in serious side-effects of hepatocyte toxicity or various chemicals which derive cell death, and the compounds synthesized in the Examples were estimated for their hepatocyte protective effects, after 24-48 hours. The substances used to cause hepatocyte death include CCl4, ActD, H2O2, doxorubicin, anti-Fas Ab/Actinomycin D, acetaminophen, EtOH, CdCl2, palmitate, stearate, cyclophosphamide, terfenadine, diclofenac, simvastatin, and adefovir. Primary hepatocytes were isolated using the method of Seglen P O (Experimental Cell Research 74 (1972), pp. 450-454). Briefly, hepatocytes were isolated according to the two-step collagenase perfusion method, and dead cells were removed by low speed (500 rpm) centrifugation for 10 min using percoll gradient (Kreamer B L et al., In Vitro Cellular & Developmental Biology 22 (1986), pp. 201-211). During this step, the viability of cells was maintained 90% or above. The cells were suspended in HepatoZYME media (Gibco BRL), and the number of cells was counted. 1.5×10^4 cells in 100 μl were placed into the collagen-coated 96-well plate (BD Biocoat), and adhered on the bottom for 3-4 hours.
In order to assess the hepatocyte protective effect, the above adhered cells were pretreated with the Example compounds for 30 min. At this time, the concentration of the Example compounds was serially diluted by 2-fold or 3-fold over 5 steps starting from 30 μM, 10 μM or 1 μM depending on the experiments, and the final concentration of DMSO was adjusted to 0.2%. 30 min after the treatment by the compounds, the cells were treated by the substances causing hepatocyte death or hepatotoxic drugs at the concentrations indicated in Table 1. After 24-48 hours, the viability of cells was determined to estimate the hepatocyte protective effect. The viability of cells was determined using the WST-1 (MK-400, Takeda) method by the absorbance at 440 nm. Hepatocyte protective effects of the Example compounds were represented by “EC50” which was calculated from measured values. “EC50” herein means the concentration of the compound at which 50% of maximum protective effect is observed in the experiment.
Background: Formazan colour is commonly taken as a measure of viable cells.

A word on the EC50: it is the concentration at which the effect is half-maximal. With “1-(4-{5-Chloro-2-[2-(3-trifluoromethyl-5,6,7,8-tetrahydro-[1,2,4]triazolo[4,3-a]pyrazin-1-yl)-ethyl]-1H-indol-7-yl}-piperidin-1-yl)-ethanone [Example 13]”, the 50% effective concentration (EC50) was 1800 nM.

“4-[5-Methyl-7-(tetrahydropyran-4-ylmethylamino)-1H-indol-2-ylmethyl)-piperazin-2-one [Example 9]”: the EC50 came to 250 nM.

On to `O=C1CN(Cc2cc3cc(Cl)cc(NC4CCCC4)c3[nH]2)CCN1` [Example 1, 4-(5-Chloro-7-cyclopentylamino-1H-indol-2-ylmethyl)-piperazin-2-one], for which the 50% effective concentration (EC50) (Hepatocyte) was determined as 160 nM.

`CC(=O)N1CCC(Nc2cc(Cl)cc3cc(CCN4CCNC(=O)C4)[nH]c23)CC1` [Example 3, 4-{2-[7-(1-Acetyl-piperidin-4-ylamino)-5-chloro-1H-indol-2-yl]-ethyl}-piperazin-2-one]: the half-maximal effective concentration (EC50) (Hepatocyte) was determined as 270 nM.

On to `Cc1cc(NCC2CCOCC2)c2[nH]c(CN3CCS(=O)(=O)CC3)cc2c1` [Example 7, [2-(1,1-Dioxothiomorpholin-4-ylmethyl)-5-methyl-1H-indol-7-yl]-(tetrahydropyran-4-ylmethyl)-amine], for which the 50% effective concentration (EC50) (Hepatocyte) is 440 nM.

For the compound `Cc1cc(NC2CCCC2)c2[nH]c(CN3CCS(=O)(=O)CC3)cc2c1` [Example 8, Cyclopentyl-[2-(1,1-dioxothiomorpholin-4-ylmethyl)-5-methyl-1H-indol-7-yl]-amine], for the setting “Hepatocyte”, the 50% effective concentration (EC50) amounted to 240 nM.

For the compound `CS(=O)(=O)N1CCC(Nc2cc(Cl)cc3cc(CCN4CCn5c(nnc5C(F)(F)F)C4)[nH]c23)CC1` [Example 12], the EC50 turned out to be 600 nM.

As to `O=C1CN(CCc2cc3cc(Cl)cc(NCc4ccccc4)c3[nH]2)CCN1` [Example 14, 4-[2-(7-Benzylamino-5-chloro-1H-indol-2-yl)-ethyl]-piperazin-2-one], the EC50 (Hepatocyte) came out at 300 nM.

For the compound `O=S1(=O)CCN(CCc2cc3cc(Cl)cc(NC4CCOCC4)c3[nH]2)CC1` [Example 18], the EC50 amounted to 240 nM.

Take `O=S1(=O)CCN(CCc2cc3cc(Cl)cc(NC4CCCC4)c3[nH]2)CC1` [Example 19, {5-Chloro-2-[2-(1,1-dioxothiomorpholin-4-yl)-ethyl]-1H-indol-7-yl}-cyclopentyl-amine]: the 50% effective concentration (EC50) (Hepatocyte) came out at 270 nM.

In the case of `O=C1CN(CCc2cc3cc(Cl)cc(NCC4CCOCC4)c3[nH]2)CCN1` [Example 22, 4-(2-{5-Chloro-7-[(tetrahydropyran-4-ylmethyl)-amino]-1H-indol-2-yl}-ethyl)-piperazin-2-one], for the setting “Hepatocyte”, the EC50 is 900 nM.

As to `Clc1cc(NC2CCCC2)c2[nH]c(C3CCNCC3)cc2c1` [Example 48, (5-Chloro-2-piperidin-4-yl-1H-indol-7-yl)-cyclopentyl-amine], under “Hepatocyte”, the concentration for a half-maximal effect (EC50) was determined as 210 nM.

The values above are taken from patent publication US10927097B2, “Indole compound as inhibitor of necrosis” (LG CHEM, LTD., priority 2013, dated 2021).
